From patent US11871713B2, “Rice cultivar designated ‘PVL02’” (Board of Supervisors of Louisiana State University and …, priority 2019, dated 2024)

Test system: ‘PVL02’ rice
Test: Herbicide tolerance of rice cultivar 'PVL02'
Type: in vivo, Oryza sativa
Conditions: rice variety ‘PVL02’ carrying plastidic ACCase I1781(Am)L; rate not given
Description: ‘PVL02’ is an early maturing, long-grain rice variety that is tolerant to ACCase herbicides. For example, ‘PVL02’ is tolerant to Quizalofop-P-ethyl, the generic name for ethyl (R)-2-[4-(6-chloroquinoxalin-2-yl) oxy)phenoxy]propionate, which is sold under the tradename Provisia™ herbicide. PVL02 has excellent milling potential, very low chalk, and a grain length-width ratio of 2.8. ‘PVL02’ was developed using a pedigree selection system at the Louisiana State University Agricultural Center's H. Rouse Caffey Rice Research Station (HRCRRS) in Crowley, Louisiana ‘PVL02’ was selected from the cross Cheniere/BASF 1-5, a cross that was made at the HRCRRS in 2012. ‘Cheniere’ is a commercially-available cultivar. An earlier experimental designation for the ‘PVL02’ line was PVL-108.
The ‘PVL02’ line was developed from the bulk of a single F3 line (14P2980) made at the Puerto Rico winter rice nursery in 2014. ‘PVL02’ was evaluated in a Provisia preliminary yield trial at the HRCRRS in 2014 and 2015, under the experimental designation 14PVL108, before being entered into the Louisiana statewide commercial/advanced yield testing program in 2016-2018.

Structure (SMILES): CCOC(=O)[C@@H](C)Oc1ccc(Oc2cnc3cc(Cl)ccc3n2)cc1 [Quizalofop-P-ethyl]
- tolerance of the rice variety to the herbicide: tolerant
